From patent publication US20220390459A1, “RAPID, HIGH-INTENSITY CHEMILUMINESCENT DIOXETANES” (Beckman Coulter, Inc., priority 2019, published 2022)

Tested on: alkaline phosphatase
Test: Chemiluminescence intensity over time after combining the phosphate dioxetane with alkaline phosphatase solution
Format: biochemical
Settings: for intensity and speed of luminescence compared with other examples (in words): AP8, TBE enhancer in 221 buffer, concentrations differ per example; for profile of emission intensity over time (in words): alkaline phosphatase in 221 buffer, compound and TBE concentration differ per example
[1] = compound 0.25 mg/mL, TBE enhancer 5 mg/mL in 221 buffer, 100 μL + 10 μL AP8, 37° C.
[2] = compound 1.25 mg/mL, TBE enhancer 5 mg/mL in 221 buffer, 100 μL + 10 μL AP8, 37° C.
[3] = compound 0.2 mg/mL in 221 buffer without TBE enhancer, 100 μL + 10 μL AP9 [1.24E-20 mole/μL], 37° C.
[4] = compound 0.25 mg/mL, TBE enhancer 2.5 mg/mL in 221 buffer, 100 μL + 10 μL AP8, 37° C.
[5] = compound 0.125 mg/mL, TBE enhancer 2.5 mg/mL in 221 buffer, 100 μL + 10 μL AP8, 37° C.

| SMILES | intensity and speed of luminescence compared with other examples (in words) (37° C.) | profile of emission intensity over time (in words) (37° C.) | time to reach maximum, steady-state intensity [1] | Σ value [1] | further results |
| --- | --- | --- | --- | --- | --- |
| COC1(c2ccc(-c3ccsc3)c(OP(=O)([O-])[O-])c2)OOC12C1CC3CC(C1)CC2C3.[Na+].[Na+] (centres unmarked) [Example 15] | higher intensity and faster response compared to the compound of Examples 12-13 | rapid increase in intensity | ≤ 2 min | 7.38E+05 |  |
| COC1(c2cccc(OP(=O)([O-])[O-])c2)OOC12C1CC3CC(C1)CC2C3.[Na+].[Na+] (centres unmarked) [Example 12, 4-methoxy-4-(3-phosphatephenyl)spiro[1,2-dioxetane-3,2′-adamantane], reference compound] |  | slow and gradual increase in emission intensity |  |  | profile of emission intensity over time (in words) (37° C., listed as Lumigen® PPD): slow luminescence; time to reach maximum light intensity or steady-state plateau [2]: more than 15 minutes; Σ value [2]: 2.27E+05 |
| COC1(c2ccc(-c3ccc(C#N)s3)c(OP(=O)([O-])[O-])c2)OOC12C1CC3CC(C1)CC2C3.[Na+].[Na+] (centres unmarked) [Example 17] |  | rapid increase in intensity |  |  | time to reach maximum, steady-state intensity [3]: ≤ 2 min; Σ value [3]: 2.77E+05 |
| COC1(c2ccc(-c3cccs3)c(OP(=O)([O-])[O-])c2)OOC12C1CC3CC(C1)CC2C3.[Na+].[Na+] (centres unmarked) [Example 14] | higher intensity and faster response compared to the compound of Examples 12-13 | rapid increase in intensity | ≤ 1 min | 9.97E+05 |  |
| C=Cc1ccc(C2(OC)OOC23C2CC4CC(C2)CC3C4)cc1OP(=O)([O-])[O-].[Na+].[Na+] (centres unmarked) [Example 16] | higher intensity and faster response compared to the compound of Examples 12-15 | rapid increase in intensity |  |  | time to reach maximum, steady-state intensity [4]: less than 3 minutes; Σ value [4]: 1.59E+06 |
| COC1(c2ccc(Cl)c(OP(=O)([O-])[O-])c2)OOC12C1CC3CC2CC(Cl)(C3)C1.[Na+].[Na+] (centres unmarked) [Example 13, reference compound] |  | slow and gradual increase in emission intensity |  |  | profile of emission intensity over time (in words) (37° C., listed as Tropix CDP-Star®): slow luminescence; time to reach maximum light intensity or steady-state plateau [5]: more than 15 minutes; Σ value [5]: 1.91E+05 |
